These are literature values, as cited in publication PMC8609999, “A Phase I trial of talazoparib in patients with advanced hematologic malignancies” (International Journal of Hematologic Oncology, 2021).

This series relates to CLL or MCL patients. More on the design: method as in PMID 28643365. As to conditions: not statistically significant; cited from earlier work.

Molecules are shown by their SMILES.

On to `O=C(c1cc(Cc2n[nH]c(=O)c3ccccc23)ccc1F)N1CCN(C(=O)C2CC2)CC1` [olaparib], for which the “Overall survival in patients with ATM mutations versus those without” value is “trend towards improved overall survival”.
